{"source": "paper PMC11287286", "about": "(Proceedings of the National Academy of Sciences of the …, 2024)", "key": {"CB2^ECL2/CB1^other": {"tested_on": "CB2^ECL2/CB1^other", "assay": "GloSensor cAMP assay, chimeric construct", "assay_type": "cell-based, human", "conditions": "vs wild-type CB1"}, "CB1^ECL2/CB2^other": {"tested_on": "CB1^ECL2/CB2^other", "assay": "GloSensor cAMP assay, chimeric construct", "assay_type": "cell-based, human", "conditions": "vs wild-type CB2"}, "CB1 D176^2.63N": {"molecular_target": "CB1 D176^2.63N (Homo sapiens, UniProt P21554, D176N)", "sequence (P21554 whole entry D176N)": "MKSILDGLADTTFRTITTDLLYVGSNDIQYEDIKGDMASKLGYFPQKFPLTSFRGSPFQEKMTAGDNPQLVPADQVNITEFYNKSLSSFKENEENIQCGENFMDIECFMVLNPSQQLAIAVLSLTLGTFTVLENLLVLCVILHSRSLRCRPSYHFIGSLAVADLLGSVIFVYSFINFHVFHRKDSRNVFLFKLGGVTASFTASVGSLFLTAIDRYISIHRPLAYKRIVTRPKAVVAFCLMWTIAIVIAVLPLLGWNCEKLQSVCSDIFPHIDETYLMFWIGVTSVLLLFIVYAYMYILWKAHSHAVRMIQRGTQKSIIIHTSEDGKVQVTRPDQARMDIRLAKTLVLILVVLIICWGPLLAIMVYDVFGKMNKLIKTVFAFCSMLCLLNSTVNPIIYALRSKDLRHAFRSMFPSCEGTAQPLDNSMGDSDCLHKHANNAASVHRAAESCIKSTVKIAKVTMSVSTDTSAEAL"}, "CB2-M293^7.47T&S47^1.46T": {"molecular_target": "CB2-M293^7.47T&S47^1.46T (Homo sapiens, UniProt P34972, M293T/S47T)", "sequence (P34972 whole entry S47T/M293T)": "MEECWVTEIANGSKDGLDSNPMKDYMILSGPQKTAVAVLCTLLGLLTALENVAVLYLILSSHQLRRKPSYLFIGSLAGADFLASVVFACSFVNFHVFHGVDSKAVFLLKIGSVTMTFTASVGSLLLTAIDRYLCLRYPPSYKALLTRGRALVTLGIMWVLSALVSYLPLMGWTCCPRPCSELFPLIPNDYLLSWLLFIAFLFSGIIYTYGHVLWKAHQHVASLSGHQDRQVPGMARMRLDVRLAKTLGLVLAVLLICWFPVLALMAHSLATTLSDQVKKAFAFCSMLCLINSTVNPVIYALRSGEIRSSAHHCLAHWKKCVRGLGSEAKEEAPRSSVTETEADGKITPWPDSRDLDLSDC", "assay": "GloSensor cAMP assay, CB2 double mutant", "assay_type": "cell-based"}}}
{"smiles": "CCCCCCC(C)(C)c1ccc([C@@H]2C[C@H](O)CC[C@H]2CCCO)c(O)c1", "note": "[CP55,940]", "values": [{"measurement": "activation of CB1 receptor containing the CB2 ECL2 loop", "setting": "CB2^ECL2/CB1^other", "value": "same potency as wild-type CB1"}, {"measurement": "effect of ECL2 replacement on EC50", "setting": "CB1^ECL2/CB2^other", "value": "no effect on the EC50"}, {"measurement": "activity vs wild-type CB1", "setting": "CB1 D176^2.63N", "value": "significantly reduces the activity"}, {"measurement": "activity vs wild-type CB2", "setting": "CB2-M293^7.47T&S47^1.46T", "value": "remained essentially unchanged"}]}
